Columns and labels:
TT2 ES cells [1] = assay: Expression of differentiation markers (RT-PCR, western blot) in ES cells induced to differentiate from embryoid bodies; details: for expression of the differentiation markers for hepatocyte (albumin, Cyp7a1 etc.): cultured 18 days in supplemented differentiation-inducing medium, RT-PCR and western blot
TT2 ES cells [2] = assay: FACS analysis of albumin producing cells; format: cell-based, mouse; details: cultured 9 days; FACS with anti-albumin antibodies; control 22%
Procedure: The medium of the cultured cells was removed and washing was performed using PBS (−). After the cells were detached from the surface of the dish using 0.25% trypsin solution, 5 mL of a collagenase solution as described below was added to the cells and the cells were incubated at 37° C. for 30 minutes in order to digest the intercellular adhesion.
After digestion, cells were collected by centrifugation (1000 rpm, 4° C., 5 minutes) and fixed using 1 mL of ice-chilled 100% methanol. After fixing the cells, centrifugation (1500 rpm, 4° C., 5 minutes) was performed in order to remove the methanol. […] Then FITC-bonded sheep anti-rabbit IgG (MP Biomedicals Inc., Catalog# 55647, Lot# 02756) was added to the cells and the cells were allowed to stand for one hour while shielding against light. After standing for one hour, the cells were loaded by a FACS Canto™ (Becton Dickinson, Franklin Lakes, N.J.) wherein a FSC voltage was set to 80, a FITC voltage was set to 300 and a threshold was set to 1000. Thereafter BD DiVa Software was used for analysis. In FIGS. 12 and 13, the intensity of FITC is shown on the horizontal axis and FSC is shown on the vertical axis.
Then uPA, DFP-treated uPA or tPA was added to differentiation-inducing medium and cultured for 9 days. Cells were isolated using trypsin treatment and collagenase treatment, and FACS analysis was performed using anti-albumin antibodies.

Row | Compound | expression of the differentiation markers for hepatocyte (albumin, Cyp7a1 etc.) (TT2 ES cells [1]) | albumin producing cells, share of the total number of cells (TT2 ES cells [2]) [%] | induction of differentiation into hepatocytes (TT2 ES cells [1]; differentiation-inducing medium supplemented with the factor)
1 | N=C(N)c1ccc(N)cc1 [p-aminobenzamidine, reference compound] | suppressed | – | –
2 | tPA: tissue-type PA which has the same substrate specificity as uPA | almost no change | 27.2 | did not induce differentiation into hepatocytes
